We go through eight compounds from patent publication US11000033B2, “Ketone or oxime compound, and herbicide” (NISSAN CHEMICAL CORPORATION, priority 2014, dated 2021).

Common to all, as to format: in vivo
Holding throughout (conditions): application herbicide amount 320 g/ha

Series [1] concerns directly sowed rice plant. Description: Test Example 3: effect on crop by foliage application, Wagner pot (symbol b). The protocol:
(§1) Herbicidal Effect Test by Foliage Application
After alluvial soil was placed into 1/10000 are of Wagner pot, water was poured and mixed to form a submerged condition having a water depth of 0.1 cm to 0.5 cm. Seeds of Echinochloa crus-galli var. crus-galli, Leptochloa chinensis, Cyperus difformis, and rice were sowed and the pot was placed in the greenhouse of 25° C. to 30° C. to grow the plants.

Series [2] concerns Echinochloa crus-galli var. crus-galli. As to the kind of experiment: Test Example 3: herbicidal effect by foliage application, Wagner pot (symbol H). Here is the method: as §1
(§2) After alluvial soil was placed into 1/10000 are of Wagner pot, water was poured and mixed to form a submerged condition having a water depth of 0.1 cm to 0.5 cm. Seeds of Echinochloa crus-galli var. crus-galli, Leptochloa chinensis, Cyperus difformis, and rice were sowed and the pot was placed in the greenhouse of 25° C. to 30° C. to grow the plants. After the plants were grown for 14 days, the emulsion agent of the compound of the present invention prepared in accordance with Formulation Example 2 was diluted with water so as to be a predetermined herbicide amount and the diluted emulsion agent was uniformly applied to a foliage part with a small-size spray. 3 weeks later from the herbicide application, the effect to each plant was investigated in accordance with the criteria of Test Example 1.

Series [3] has as its system Cyperus difformis. As to the kind of experiment: Test Example 3: herbicidal effect by foliage application, Wagner pot (symbol E). The protocol: as §1, §2
In series [4] the test system is Leptochloa chinensis. Description: Test Example 3: herbicidal effect by foliage application, Wagner pot (symbol D). Here is the method:
as §1, §2

The subject of series [5] is Echinochloa oryzacola Vasing. Description: Test Example 1: herbicidal activity, application before weed generation in submerged conditions (symbol A). From the text: (§3) Herbicidal Activity Test by Application Before Weed Generation in Submerged Conditions
(§4) After alluvial soil was placed into 1/10000 are of Wagner pot, water was poured and mixed to form a submerged condition having a water depth of 4 cm. Seeds of Echinochloa oryzacola Vasing., Scirpus juncoides, and Monochoria vaginalis were sowed in a mixed manner in the above pot and thereafter 2.5 leaf stage rice plant seedlings were transplanted thereto. On the day of sowing seeds, the emulsion agent of the compound of the present invention prepared in accordance with Formulation Example 2 was diluted with water so as to be a predetermined herbicide amount and the diluted emulsion agent was applied to the surface of the water. The pot was placed in a greenhouse of 25° C. to 30° C. to grow plant. 3 weeks later from the herbicide application, the effect to each plant was investigated in accordance with the following criteria.
(§5) 5 Herbicidal ratio of 90% or more (almost completely withered)
(§6) 4 Herbicidal ratio of 70% or higher and lower than 90%
(§7) 3 Herbicidal ratio of 40% or higher and lower than 70%
(§8) 2 Herbicidal ratio of 20% or higher and lower than 40%
(§9) 1 Herbicidal ratio of 5% or higher and lower than 20%
(§10) 0 Herbicidal ratio of 5% or lower (almost no effect)

Series [6] has as its system Monochoria vaginalis. As to the kind of experiment: Test Example 1: herbicidal activity, application before weed generation in submerged conditions (symbol C).
Excerpt: as §3, §4, §5, §6, §7, §8, §9, §10

In series [7] the test system is Scirpus juncoides. As to the kind of experiment: Test Example 1: herbicidal activity, application before weed generation in submerged conditions (symbol B).
Excerpt: as §3, §4, §5, §6, §7, §8, §9, §10

Series [8] has as its system transplanted rice plant. As to the kind of experiment: Test Example 1: effect on crop, application before weed generation in submerged conditions (symbol a). The protocol:
as §3
After alluvial soil was placed into 1/10000 are of Wagner pot, water was poured and mixed to form a submerged condition having a water depth of 4 cm. Seeds of Echinochloa oryzacola Vasing., Scirpus juncoides, and Monochoria vaginalis were sowed in a mixed manner in the above pot and thereafter 2.5 leaf stage rice plant seedlings were transplanted thereto. […] The pot was placed in a greenhouse of 25° C. to 30° C. to grow plant. 3 weeks later from the herbicide application, the effect to each plant was investigated in accordance with the following criteria.
as §5, §6, §7, §8, §9, §10

Molecules are shown by their SMILES.

In the case of `CON=C(CCl)CC1CC(O)=C(c2c(C)cc(C)cc2C)C1=O` (stereo not drawn) [1-084], the “effect on crop b (directly sowed rice plant), grade 0-5” value (“effect on crop b” below) in series [1] is 1 (Herbicidal ratio of 5% or higher and lower than 20%). Besides, the “herbicidal effect on H (Echinochloa crus-galli var. crus-galli), grade 0-5” value (from here on “herbicidal effect on H”) in series [2] is 2 (Herbicidal ratio of 20% or higher and lower than 40%). The “herbicidal effect on E, grade 0-5” value in series [3] is 0 (Herbicidal ratio of 5% or lower (almost no effect)). For the same compound, the “herbicidal effect on D (Leptochloa chinensis), grade 0-5” value (“herbicidal effect on D” below) in series [4] is listed as 0 (Herbicidal ratio of 5% or lower (almost no effect)).
Take `CON=C(CCl)CC1CC(OC)=C(c2c(C)cc(C)cc2C)C1=O` (stereo not drawn) [1-077]: the “Herbicidal effect grade, A: Echinochloa oryzacola Vasing.” value in series [5] is 1 (Herbicidal ratio of 5% or higher and lower than 20%). In addition, in series [6], the “Herbicidal effect grade, C: Monochoria vaginalis” value is 0 (Herbicidal ratio of 5% or lower (almost no effect)). For the same compound, the “Herbicidal effect grade, B: Scirpus juncoides” value in series [7] was 2 (Herbicidal ratio of 20% or higher and lower than 40%). The “Effect grade on crop, a: transplanted rice plant” value in series [8] is 1 (Herbicidal ratio of 5% or higher and lower than 20%).
Take `COC(=O)C(C(C)=O)C1CC(O)=C(c2c(F)cc(Br)cc2OC)C1=O` (stereo not drawn) [7-028]: in series [1] (Table 24), the “b (directly sowed rice plant) effect on crop grade” value was 0 (Herbicidal ratio of 5% or lower (almost no effect)). Also, in series [2] (Table 24), the “H (Echinochloa crus-galli var. crus-galli) herbicidal effect grade” value is 0 (Herbicidal ratio of 5% or lower (almost no effect)). For the same compound, the “E herbicidal effect grade” value in series [3] (Table 24) is 0 (Herbicidal ratio of 5% or lower (almost no effect)). For the same compound, the “D (Leptochloa chinensis) herbicidal effect grade” value in series [4] (Table 24) is listed as 0 (Herbicidal ratio of 5% or lower (almost no effect)).
For the compound `CC(=O)CC1CC(O)=C(c2c(C)cc(OCc3ccncc3)cc2C)C1=O` (stereo not drawn) [7-021], the “effect on crop b” value in series [1] is 0 (Herbicidal ratio of 5% or lower (almost no effect)). Further, in series [2], the “herbicidal effect on H” value was 2 (Herbicidal ratio of 20% or higher and lower than 40%). Moreover, in series [3], the “herbicidal effect on E, grade 0-5” value is reported as 0 (Herbicidal ratio of 5% or lower (almost no effect)). Also, the “herbicidal effect on D” value in series [4] is 2 (Herbicidal ratio of 20% or higher and lower than 40%).
Turning to `CON=C(CC1CC(O)=C(c2c(C)cc(C)cc2C)C1=O)c1ccc(C)cc1` (stereo not drawn) [1-164], the “effect on crop b” value in series [1] was 4 (Herbicidal ratio of 70% or higher and lower than 90%). Moreover, in series [2], the “herbicidal effect on H” value was 2 (Herbicidal ratio of 20% or higher and lower than 40%). Also, the “herbicidal effect on E, grade 0-5” value in series [3] is 0 (Herbicidal ratio of 5% or lower (almost no effect)). In addition, in series [4], the “herbicidal effect on D” value is 3 (Herbicidal ratio of 40% or higher and lower than 70%).
With `CON=C(C)CC1CC(OC(=S)N(C)C)=C(c2c(C)cc(C)cc2C)C1=O` (stereo not drawn) [1-141], the “effect on crop b” value in series [1] was 1 (Herbicidal ratio of 5% or higher and lower than 20%). For the same compound, the “herbicidal effect on H” value in series [2] is 2 (Herbicidal ratio of 20% or higher and lower than 40%). Further, the “herbicidal effect on D” value in series [4] is given as 0 (Herbicidal ratio of 5% or lower (almost no effect)).
Turning to `CON=C(C)CC1CC(OC(=O)N(c2ccccc2)c2ccccc2)=C(c2c(C)cc(C)cc2C)C1=O` (stereo not drawn) [1-157], the “effect on crop b” value in series [1] is listed as 0 (Herbicidal ratio of 5% or lower (almost no effect)). Besides, in series [2], the “herbicidal effect on H” value is on record as 0 (Herbicidal ratio of 5% or lower (almost no effect)). The “herbicidal effect on D” value in series [4] was 4 (Herbicidal ratio of 70% or higher and lower than 90%).
Turning to `CON=C(C)CC1CC(O)=C(c2c(C)cc(OCc3ccncc3)cc2C)C1=O` (stereo not drawn) [6-070], in series [1], the “effect on crop b” value is reported as 0 (Herbicidal ratio of 5% or lower (almost no effect)). Besides, the “herbicidal effect on H” value in series [2] is on record as 0 (Herbicidal ratio of 5% or lower (almost no effect)). Moreover, the “herbicidal effect on E, grade 0-5” value in series [3] is given as 0 (Herbicidal ratio of 5% or lower (almost no effect)). Moreover, in series [4], the “herbicidal effect on D” value was 4 (Herbicidal ratio of 70% or higher and lower than 90%).
